Measured values from patent publication US7049313B2, “ATM inhibitors” (Kudos Pharmaceuticals Ltd., priority 2002, dated 2006).

The compounds below were run against T1, ATM (Homo sapiens, UniProt Q13315) (assay: In vitro ATM inhibition assay (phosphorylation of GSTp53N66 on serine 15)).
T1 construct: ATM protein was immunoprecipitated from HeLa cell nuclear extract; endogenous in cells; host or cells: HeLa cell nuclear extract (immunoprecipitate)
Format: biochemical
Method: In vitro ATM inhibition Assays
In order to assess the inhibitory action of the compounds against ATM in vitro, the following assay was used to determine IC50 values.
ATM protein was immunoprecipitated from HeLa cell nuclear extract using rabbit polyclonal anti-sera raised to the C-terminal ˜500 amino-acid residues of the human ATM protein. The immunoprecipitation was performed according to the methodology described by Banin, S. et al. (1998). 10 μl of immunoprecipitated ATM in Buffer C (50 mM Hepes, pH 7.4, 6 mM MgCl2, 150 mM NaCl, 0.1 mM sodium orthovanadate, 4 mM MnCl2, 0.1 mM dithiothreitol, 10% glycerol) was added to 32.5 μl of buffer C containing 1 μg of the ATM substrate GSTp53N66 in a V-bottomed 96 well polypropylene plate. The GSTp53N66 substrate is the amino terminal 66 amino acid residues of human wild type p53 fused to glutathione S-transferase. ATM phosphorylates p53 on the residue serine 15 (Banin, S. et al. (1998)). Varying concentrations of inhibitor were then added. […] After 10 minutes of incubation at 37° C., the reactions were initiated by the addition of 5 μl of 500 μM Na-ATP. After 1 hour with shaking at 37° C., 150 μl of phosphate buffered saline (PBS) was added to the reaction and the plate centrifuged at 1500 rpm for 10 minutes. 5 μl of the reaction was then transferred to a 96 well opaque white plate containing 45 μl of PBS to allow the GSTp53N66 substrate to bind to the plate wells. The plate was covered and incubated at room temperature for 1 hour with shaking before discarding the contents. The plate wells were washed twice by the addition of PBS prior to the addition of 3% (w/v) bovine serum albumin (BSA) in PBS. The plate was incubated at room temperature for 1 hour with shaking before discarding the contents and washing twice with PBS. To the wells, 50 μl of a 1:10,000 dilution of primary phosphoserine-15 antibody (Cell Signaling Technology, #9284L) in 3% BSA/PBS was added to detect the phosphorylation event on the serine 15 residue of p53 elicited by the ATM kinase. After 1 hour of incubation at room temperature with shaking, the wells were washed four times with PBS prior to the addition of an anti-rabbit HRP conjugated secondary antibody (Pierce, 31462) with shaking for 1 hour at room temperature. The wells were then washed four times with PBS before the addition of chemiluminescence reagent (NEN Renaissance, NEL105). The plate was then shaken briefly, covered with a transparent plate seal and transferred to a TopCount NXT for chemiluminescent counting. Counts per second, following a one second counting time, were recorded for each reaction.
The enzyme activity for each compound is then calculated using the following equation: […]

T1 sequence (Q13315 whole entry): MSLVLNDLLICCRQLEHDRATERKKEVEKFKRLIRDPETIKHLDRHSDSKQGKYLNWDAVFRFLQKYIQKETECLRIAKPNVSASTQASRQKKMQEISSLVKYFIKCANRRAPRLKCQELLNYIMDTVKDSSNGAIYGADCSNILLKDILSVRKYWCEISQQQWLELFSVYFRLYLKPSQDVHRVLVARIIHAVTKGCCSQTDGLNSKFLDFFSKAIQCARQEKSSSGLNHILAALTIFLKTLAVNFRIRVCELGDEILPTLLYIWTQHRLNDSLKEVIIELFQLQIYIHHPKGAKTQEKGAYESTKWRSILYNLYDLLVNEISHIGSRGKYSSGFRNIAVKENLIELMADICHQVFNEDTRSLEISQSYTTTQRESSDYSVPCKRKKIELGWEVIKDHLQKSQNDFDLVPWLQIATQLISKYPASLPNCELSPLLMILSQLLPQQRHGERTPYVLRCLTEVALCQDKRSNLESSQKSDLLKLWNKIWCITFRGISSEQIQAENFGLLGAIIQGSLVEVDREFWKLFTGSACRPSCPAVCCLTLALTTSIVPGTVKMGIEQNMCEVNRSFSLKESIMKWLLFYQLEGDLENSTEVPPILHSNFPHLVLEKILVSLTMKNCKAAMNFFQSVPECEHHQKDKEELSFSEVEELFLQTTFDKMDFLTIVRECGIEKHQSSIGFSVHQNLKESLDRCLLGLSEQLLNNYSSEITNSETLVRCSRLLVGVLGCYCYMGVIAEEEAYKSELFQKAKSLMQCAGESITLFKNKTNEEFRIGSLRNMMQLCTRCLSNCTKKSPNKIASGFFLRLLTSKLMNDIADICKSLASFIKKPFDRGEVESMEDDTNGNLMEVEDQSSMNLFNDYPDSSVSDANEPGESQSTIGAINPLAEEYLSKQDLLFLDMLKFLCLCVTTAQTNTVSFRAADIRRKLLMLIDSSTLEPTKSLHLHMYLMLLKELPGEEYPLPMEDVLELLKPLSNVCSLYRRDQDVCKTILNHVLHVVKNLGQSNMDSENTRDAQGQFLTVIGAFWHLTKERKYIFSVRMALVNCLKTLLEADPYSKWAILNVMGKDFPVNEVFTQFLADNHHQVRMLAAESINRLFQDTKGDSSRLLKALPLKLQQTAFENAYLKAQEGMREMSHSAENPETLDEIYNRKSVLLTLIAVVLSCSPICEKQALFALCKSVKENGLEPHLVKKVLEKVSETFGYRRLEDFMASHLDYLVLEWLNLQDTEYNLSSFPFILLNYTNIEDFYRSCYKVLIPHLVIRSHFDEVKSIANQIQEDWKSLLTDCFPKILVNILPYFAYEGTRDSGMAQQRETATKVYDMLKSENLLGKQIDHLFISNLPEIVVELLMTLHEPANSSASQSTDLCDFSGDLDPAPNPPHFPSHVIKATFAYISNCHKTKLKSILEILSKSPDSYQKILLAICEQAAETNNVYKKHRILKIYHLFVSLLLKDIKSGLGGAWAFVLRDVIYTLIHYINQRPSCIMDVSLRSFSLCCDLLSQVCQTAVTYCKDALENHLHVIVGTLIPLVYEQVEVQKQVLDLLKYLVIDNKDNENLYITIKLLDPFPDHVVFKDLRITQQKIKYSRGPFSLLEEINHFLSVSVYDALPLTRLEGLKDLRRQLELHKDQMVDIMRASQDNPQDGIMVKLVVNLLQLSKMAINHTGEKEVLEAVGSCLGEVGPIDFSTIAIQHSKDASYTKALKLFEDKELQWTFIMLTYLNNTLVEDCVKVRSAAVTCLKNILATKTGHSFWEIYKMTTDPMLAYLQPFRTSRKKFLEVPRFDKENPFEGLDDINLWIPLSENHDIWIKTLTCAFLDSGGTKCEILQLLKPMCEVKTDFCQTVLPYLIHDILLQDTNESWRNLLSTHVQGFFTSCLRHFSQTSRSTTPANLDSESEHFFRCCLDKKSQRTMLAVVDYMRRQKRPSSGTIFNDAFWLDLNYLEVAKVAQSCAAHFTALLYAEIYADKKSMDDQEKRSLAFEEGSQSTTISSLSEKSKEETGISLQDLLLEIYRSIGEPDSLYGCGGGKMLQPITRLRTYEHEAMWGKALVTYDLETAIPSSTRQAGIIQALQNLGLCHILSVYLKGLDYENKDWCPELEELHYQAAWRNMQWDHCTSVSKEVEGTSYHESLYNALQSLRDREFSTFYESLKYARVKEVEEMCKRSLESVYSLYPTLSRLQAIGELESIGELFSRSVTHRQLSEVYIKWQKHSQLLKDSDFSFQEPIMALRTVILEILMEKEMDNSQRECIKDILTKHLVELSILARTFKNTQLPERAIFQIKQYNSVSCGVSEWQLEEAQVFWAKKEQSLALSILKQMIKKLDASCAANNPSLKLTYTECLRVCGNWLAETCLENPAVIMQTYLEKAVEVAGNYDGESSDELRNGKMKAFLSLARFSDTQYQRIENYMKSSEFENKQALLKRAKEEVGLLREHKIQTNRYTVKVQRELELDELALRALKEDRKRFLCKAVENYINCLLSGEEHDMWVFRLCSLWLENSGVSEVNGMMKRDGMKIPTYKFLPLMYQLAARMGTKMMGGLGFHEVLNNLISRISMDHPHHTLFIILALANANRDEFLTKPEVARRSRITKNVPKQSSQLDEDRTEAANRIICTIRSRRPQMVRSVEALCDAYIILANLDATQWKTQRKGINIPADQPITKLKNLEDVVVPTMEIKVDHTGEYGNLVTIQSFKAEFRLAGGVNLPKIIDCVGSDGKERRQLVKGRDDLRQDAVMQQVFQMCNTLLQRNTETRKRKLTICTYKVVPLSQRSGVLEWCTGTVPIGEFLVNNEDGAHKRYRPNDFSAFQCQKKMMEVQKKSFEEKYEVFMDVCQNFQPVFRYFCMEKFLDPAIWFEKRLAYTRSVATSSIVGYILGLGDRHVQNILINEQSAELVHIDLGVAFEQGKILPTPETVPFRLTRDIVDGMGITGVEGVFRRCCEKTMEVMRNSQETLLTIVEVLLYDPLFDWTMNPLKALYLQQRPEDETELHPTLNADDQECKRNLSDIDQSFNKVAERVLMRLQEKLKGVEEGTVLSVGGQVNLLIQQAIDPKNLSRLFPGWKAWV

IC50, < 200 nM:
O=C(CCNCCO)Nc1ccc2c(c1)Cc1cccc(-c3cc(=O)cc(N4CCOCC4)o3)c1S2 [Compound 74]
O=C(c1ccc2c(c1)Sc1cccc(-c3cc(=O)cc(N4CCOCC4)o3)c1S2)N1CCOCC1 [Compound 160]
CC(=O)Oc1ccccc1C(=O)Nc1ccc2c(c1)Cc1cccc(-c3cc(=O)cc(N4CCOCC4)o3)c1S2 [Compound 37]
CC(=O)N1CCC(C(=O)Nc2ccc3c(c2)Cc2cccc(-c4cc(=O)cc(N5CCOCC5)o4)c2S3)CC1 [Compound 36]
O=C(Nc1ccc2c(c1)Cc1cccc(-c3cc(=O)cc(N4CCOCC4)o3)c1S2)c1ccno1 [Compound 47]
O=C(Nc1ccc2c(c1)Cc1cccc(-c3cc(=O)cc(N4CCOCC4)o3)c1S2)c1csc(-c2cccs2)n1 [Compound 46]
CC1CN(C(=O)c2ccc3c(c2)Sc2cccc(-c4cc(=O)cc(N5CCOCC5)o4)c2S3)CC(C)O1 (stereo not shown) [Compound 158]
O=C(CCNCC1CCCO1)Nc1ccc2c(c1)Cc1cccc(-c3cc(=O)cc(N4CCOCC4)o3)c1S2 (stereo not shown) [Compound 86]
O=C(CNCC1CCCO1)Nc1ccc2c(c1)Cc1cccc(-c3cc(=O)cc(N4CCOCC4)o3)c1S2 (stereo not shown) [Compound 68]
O=C(NCc1ccncc1)c1ccc2c(c1)Sc1cccc(-c3cc(=O)cc(N4CCOCC4)o3)c1S2 [Compound 172]
CN(C)c1ccc(CNC(=O)c2ccc3c(c2)Sc2cccc(-c4cc(=O)cc(N5CCOCC5)o4)c2S3)cc1 [Compound 169]
O=c1cc(-c2cccc3c2Sc2ccccc2N3)oc(N2CCOCC2)c1 [Compound 135, 2-Morpholin-4-yl-6-(10H-phenothiazin-4-yl)-pyran-4-one]
CC(=O)Oc1cccc(C(=O)Nc2ccc(-c3cc(=O)cc(N4CCOCC4)o3)c3c2Cc2ccccc2S3)c1C [Compound 123]
O=C(NCC1CC1)c1ccc2c(c1)Sc1cccc(-c3cc(=O)cc(N4CCOCC4)o3)c1S2 [Compound 152]
CN1CCCN(CC(=O)Nc2ccc3c(c2)Cc2cccc(-c4cc(=O)cc(N5CCOCC5)o4)c2S3)CC1 [Compound 59]
N#Cc1cccc(NC(=O)Nc2ccc(-c3cc(=O)cc(N4CCOCC4)o3)c3c2Cc2ccccc2S3)c1 [Compound 117]
CN1CCCN(CCC(=O)Nc2ccc3c(c2)Cc2cccc(-c4cc(=O)cc(N5CCOCC5)o4)c2S3)CC1 [Compound 77]
COC(=O)CC(=O)Nc1ccc2c(c1)Cc1cccc(-c3cc(=O)cc(N4CCOCC4)o3)c1S2 [Compound 23]
O=C(NCCc1ccccn1)c1ccc2c(c1)Sc1cccc(-c3cc(=O)cc(N4CCOCC4)o3)c1S2 [Compound 173]
O=C(NCCc1cnc[nH]1)c1ccc2c(c1)Sc1cccc(-c3cc(=O)cc(N4CCOCC4)o3)c1S2 [Compound 176]
O=C(CCN1CCCC1)Nc1ccc2c(c1)Cc1cccc(-c3cc(=O)cc(N4CCOCC4)o3)c1S2 [Compound 76]
CC(C)CNC(=O)c1ccc2c(c1)Sc1cccc(-c3cc(=O)cc(N4CCOCC4)o3)c1S2 [Compound 145]
O=C(CNCCCN1CCOCC1)Nc1ccc2c(c1)Cc1cccc(-c3cc(=O)cc(N4CCOCC4)o3)c1S2 [Compound 62]
Nc1ccc2c(c1)Cc1cccc(-c3cc(=O)cc(N4CCOCC4)o3)c1S2 [Compound 20, 2-(7-Amino-9H-thioxanthen-4-yl)-6-morpholin-4-yl-pyran-4-one]
O=C(NCC1CCCCC1)c1ccc2c(c1)Sc1cccc(-c3cc(=O)cc(N4CCOCC4)o3)c1S2 [Compound 154]
O=C(O)CCC(=O)Nc1ccc2c(c1)Cc1cccc(-c3cc(=O)cc(N4CCOCC4)o3)c1S2 [Compound 48]
O=C(CCN1CCCCCC1)Nc1ccc2c(c1)Cc1cccc(-c3cc(=O)cc(N4CCOCC4)o3)c1S2 [Compound 79]
COCCN(CCOC)CC(=O)Nc1ccc2c(c1)Cc1cccc(-c3cc(=O)cc(N4CCOCC4)o3)c1S2 [Compound 55]
CN(C)C(=O)c1ccc2c(c1)Sc1cccc(-c3cc(=O)cc(N4CCOCC4)o3)c1S2 [Compound 140]
CCCNC(=O)c1ccc2c(c1)Sc1cccc(-c3cc(=O)cc(N4CCOCC4)o3)c1S2 [Compound 144]
Cc1nnsc1C(=O)Nc1ccc(-c2cc(=O)cc(N3CCOCC3)o2)c2c1Cc1ccccc1S2 [Compound 111]
COC(=O)CCCC(=O)Nc1ccc2c(c1)Cc1cccc(-c3cc(=O)cc(N4CCOCC4)o3)c1S2 [Compound 25]
COCC(=O)CC(=O)Nc1ccc(-c2cc(=O)cc(N3CCOCC3)o2)c2c1Cc1ccccc1S2 [Compound 124]
COc1ccccc1C(=O)Nc1ccc2c(c1)Cc1cccc(-c3cc(=O)cc(N4CCOCC4)o3)c1S2 [Compound 29]
CC(C)(C)OC(=O)Nc1ccc(-c2cc(=O)cc(N3CCOCC3)o2)c2c1Cc1ccccc1S2 [Compound 127]
COC(=O)c1ccc2c(c1)Sc1cccc(-c3cc(=O)cc(N4CCOCC4)o3)c1S2 [Compound 137, 6-(6-Morpholin-4-yl-4-oxo-4H-pyran-2-yl)-thianthrene-2-carboxylic acid methyl ester]
O=C(NCC(F)(F)F)c1ccc2c(c1)Sc1cccc(-c3cc(=O)cc(N4CCOCC4)o3)c1S2 [Compound 148]
COc1ccc(CNCC(=O)Nc2ccc3c(c2)Cc2cccc(-c4cc(=O)cc(N5CCOCC5)o4)c2S3)cc1 [Compound 63]
O=C(NCc1cccnc1)c1ccc2c(c1)Sc1cccc(-c3cc(=O)cc(N4CCOCC4)o3)c1S2 [Compound 171]
CCN(CC)CCNC(=O)c1ccc2c(c1)Sc1cccc(-c3cc(=O)cc(N4CCOCC4)o3)c1S2 [Compound 181]
COc1ccc(CNCCC(=O)Nc2ccc3c(c2)Cc2cccc(-c4cc(=O)cc(N5CCOCC5)o4)c2S3)cc1 [Compound 81]
O=C(Nc1ccc(-c2cc(=O)cc(N3CCOCC3)o2)c2c1Cc1ccccc1S2)c1ccc(-c2ccccn2)s1 [Compound 110]
Nc1ccc(-c2cc(=O)cc(N3CCOCC3)o2)c2c1Cc1ccccc1S2 [Compound 106, 2-(1-Amino-9H-thioxanthen-4-yl)-6-morpholin-4-yl-pyran-4-one]
COC(=O)CCC(=O)Nc1ccc2c(c1)Cc1cccc(-c3cc(=O)cc(N4CCOCC4)o3)c1S2 [Compound 39]
O=C(Nc1ccc2c(c1)Cc1cccc(-c3cc(=O)cc(N4CCOCC4)o3)c1S2)C1CCC1 [Compound 32]
O=C(CCN1CCCNCC1)Nc1ccc2c(c1)Cc1cccc(-c3cc(=O)cc(N4CCOCC4)o3)c1S2 [Compound 78]
O=C(Nc1ccc2c(c1)Cc1cccc(-c3cc(=O)cc(N4CCOCC4)o3)c1S2)c1ccco1 [Compound 27]
O=c1cc(-c2ccc(OCCNCCO)c3c2Cc2ccccc2S3)oc(N2CCOCC2)c1 [Compound 93]
NCCC(=O)Nc1ccc2c(c1)Cc1cccc(-c3cc(=O)cc(N4CCOCC4)o3)c1S2 [Compound 84]
O=C(CCSc1ncn[nH]1)Nc1ccc2c(c1)Cc1cccc(-c3cc(=O)cc(N4CCOCC4)o3)c1S2 [Compound 82]
O=C(Nc1ccc(-c2cc(=O)cc(N3CCOCC3)o2)c2c1Cc1ccccc1S2)c1ccco1 [Compound 107]
O=C(Nc1ccc(-c2cc(=O)cc(N3CCOCC3)o2)c2c1Cc1ccccc1S2)c1ccno1 [Compound 126]
